Numbered stars: 1 amine (or outer) side, 2 acyl side, 3 side chain; on linkers, the order of the positions; unused ones are H or OH. Square brackets hold non-standard residues; d marks the D form. Peptide text beside a SMILES is read from it. * marks the point of attachment. X1 = CC(N[*:1])C(=O)C(F)(F)C(=O)[*:2]; Boc = CC(C)(C)OC(=O)*
Assays:
[1] = test system: γ-secretase cleavage of APP in CHO-APP695 cells; assay: 35S-methionine labeling, immunoprecipitation and SDS-PAGE of secreted Aβ, APP holoprotein and APP C-terminal fragments; type: cell-based, Chinese hamster; details: 5 mM LiCl or 100 μM DFK-167 for 24 hours
Protocol: To visualize the APP fragments, CHO695 cells plated on 6-well dishes were methionine-deprived for 30 minutes by incubation in methionine-free DMEM (Life Technologies, Inc., Grand Island, N.Y.) before adding 500 μCi ^35S-methionine (Perkin Elmer Life Sciences, Inc., Boston Mass.) per ml of DMEM with 5% dialyzed FBS (Invitrogen) and mg/ml L-proline for 2.5 hours. Medium was collected and cells (2 wells/sample) were rinsed twice with PBS (phosphate buffered saline), then scraped into RIPA buffer (a standard immunoprecipitation buffer, see, Harlow and Lane (eds.), In Antibodies: a laboratory manual, Cold Spring Harbor Laboratory Press, NY (1988)). Lysates were sonicated and centrifuged at 100,000×g for 20 minutes. Using protein A/G agarose beads (Santa Cruz Biotechnologies, Santa Cruz, Calif.), media was immunoprecipitated with the antibody BAN-50 (Suzuki et al., 1994) that recognizes Aβ amino acids 1-10, and cell lysates were immunoprecipitated with antibody 2493 (Lee et al., J. Biol. Chem. 278:[…] (2003)), which is a rabbit polyclonal antibody that recognizes the C-terminus of APP. Proteins were resolved by electrophoresis on 10/16% step gradient Tris-tricine polyacrylamide gels. Gels were fixed in 50% methanol+5% glycerol, dried, and exposed to a Phosphorlmager screen. […]

[2] = test system: Aβ40 and Aβ42 production in CHO-APP695 cells; assay: Secreted Aβ40 and Aβ42 from CHO-APP695 cells, sandwich ELISA normalized to intracellular full-length APP; type: cell-based, Chinese hamster
Protocol: To investigate the role of GSK-3 in the production of peptides Aβ40 and Aβ42, Chinese hamster ovary (CHO) cells stably expressing APP (CHO-APP695) were treated with lithium chloride (LiCl), which is a direct inhibitor of GSK-3α and β (Phiel et al., 2001). CHO695 cells (available commercially, e.g., American Type Culture Collection (ATCC), Manassas, Va.) were maintained in culture in MEMα+5% fetal bovine serum (FBS) (e.g., BioWhittaker, Walkersville, Md.) with added penicillin/streptomycin and glutamine. Stocks of lithium chloride were prepared in sterile water. To quantify the Aβ40 and Aβ42 secretion following treatment with LiCl, the CHO-APP695 cells were plated in 6-well dishes at a density of 5×10^5 cells per well. LiCl was added to the cells in fresh medium, and media and cells were collected 24 hours later. Aβ determinations from the media were made by sandwich ELISA in femtomoles using the method of Suzuki et al., Science 264:1336-1340 (1994).
For comparison purposes, the results were normalized to levels of intracellular full-length APP. APP levels were quantified by SDS-PAGE followed by western immunoblotting with the amino-terminal APP antibody Karen (Turner et al., J. Biol. Chem. 271:8966-8970 (1996)), and visualized using ^125I-labelled secondary antibodies by Phosphorlmager analysis and ImageQuant software (Amersham Biosciences Corp, Piscataway, N.J.).
Stocks of kenpaullone (Calbiochem, La Jolla, Calif.) were prepared in DMSO. Secreted labeled Aβ secreted from CHO-APP695 cells was obtained as described in the preceding examples. Drugs were added to fresh medium, and medium and cells were collected, as described above, 24 hours later. Immunoprecipitates from the medium were SDS-PAGE separated and Phosphorlmager visualized.
Stocks of roscovitine (Calbiochem) were prepared in DMSO.

GSK-3 [3] = assay: β-catenin protein accumulation by western blot in CHO-APP695 cells; type: cell-based, Chinese hamster; details: kenpaullone 0.5, 2.0, 5.0 μM; LiCl 0.5, 2.0, 5.0 mM; FIG. 2b
Protocol: This was confirmed by western blot, in CHO-APP695 cells treated with kenpaullone (tested at concentrations of 0.5 μM, 2.0 μM and 5.0 μM, respectively) or lithium (0.5 mM, 2.0 mM and 5.0 mM LiCl) as shown in FIG. 2b. Roscovitine was added as a control (tested at concentrations of 0.5 μM, 2.0 μM and 5.0 μM, respectively) in FIG. 2b, as had been in the study summarized in FIG. 2a. A western blot for actin is was used as a loading control (see FIG. 2b).

[4] = test system: cyclin-dependent kinases (cdks); details: in vitro; cited from earlier work
GSK-3 [5] = assay: β-catenin/Tcf-dependent luciferase reporter (OT-Luc / Lef-OT) in CHO-APP695 cells; type: cell-based, Chinese hamster; set-up: dose or concentration left out as unconfirmed; details: FIG. 2c
Protocol: CHO-APP695 cells were transfected with a β-catenin-responsive reporter construct, OT-luciferase (OT-Luc) (shown in FIG. 2c as light bars), or a mutated reporter, OF-luciferase (OF-Luc) (shown in FIG. 2c as dark bars). OT-luciferase was provided by K. Kinzler and B Vogelstein.
After transfection, cells were treated with lithium (at concentrations of 0.5 mM, 2.0 mM and 5 mM LiCl, respectively), kenpaullone (at concentrations of […]) or roscovitine (at concentrations of […]) for 24 hours. Cells were harvested and luciferase assays performed.

GSK-3α = assay: siRNA knock-down, GSK-3α protein by western blot in CHO-APP695 cells; type: cell-based, Chinese hamster
Protocol: (§1) CHO-APP695 cells were transfected with short interfering RNAs (siRNAs) directed against GSK-3α and GSK-3β as follows. RNA oligonucleotides were synthesized by Dharmacon, Inc. (Lafayette, Colo.) Sequences used were:
(§2) The dsRNA was produced using conditions described in Elbashir et al., 2001, supra. The siRNA was transfected into the CHO-APP695 cells plated in 6-well dishes using GenePORTER transfection reagent. The siRNA (25 nM) was co-transfected with 2 μg plasmid DNA. The siRNA against pGL3-luciferase (Pp-Luc) represents control transfection. […] Following transfection, the cells were cultured and harvested 48 hours later. GSK-3α and GSK-3β protein levels were examined using an antibody that recognized both GSK-3 isoforms (Calbiochem), and western blotted as above.

[6] = test system: Aβ40 and Aβ42 production in CHO-APP695 cells; assay: Aβ levels secreted from siRNA transfected CHO-APP695 cells; type: cell-based, Chinese hamster; details: siRNA 25 nM, 48 hours
Protocol: as §2
As graphically presented in FIG. 3b, Aβ levels (Aβ40 shown in light bars; […] shown in dark bars) secreted from siRNA and transfected cells in a representative experiment, were assessed as in FIG. 1. Error bars represent standard deviation. The experiment was repeated six times with similar results. As a result, the selective reduction of GSK-3 a protein decreased Aβ40 and Aβ42 levels by 45% and 43%, respectively (FIG. 3b). Asterisks indicate a significant difference from control, as determined by one-way ANOVA (p<0.05).

GSK-3β = assay: siRNA knock-down, GSK-3β protein by western blot in CHO-APP695 cells; type: cell-based, Chinese hamster; details: siRNA 25 nM, harvested 48 hours after transfection
Protocol: as §1, §2

Q: For CCC(C)C(NC(=O)C(NC(=O)OC(C)(C)C)C(C)C)C(=O)NC(C)C(=O)C(F)(F)C(=O)NC(C(=O)NC(C(=O)OC)C(C)CC)C(C)C (stereo not drawn) [DFK-167] (Boc-VI[X1]VI-OMe; configuration not given here), which “steady-state levels of secreted Aβ peptides” value ([1]; FIG. 1b) is on record?
A: Its value is “dramatically reduce”.

Q: And the “accumulation of APP C-terminal fragments (CTFs)” value ([1]; FIG. 1c)?
A: Its value is “accumulation of APP CTFs”.

Q: With [Cl-].[Na+] [NaCl, sodium chloride] as the compound, how does the “effect on APP processing” value ([2]; 24 hours, FIG. 1a) read?
A: Its value is “no effect”.

Q: Which results are given for O=C1Cc2c([nH]c3ccc(Br)cc23)-c2ccccc2N1 [kenpaullone]?
A: accumulation of β-catenin protein (GSK-3 inhibition in cells) (GSK-3 [3]): accumulation of β-catenin protein; concentration needed for cdk inhibition relative to GSK-3 inhibition [4]: at least 20 fold; reduction of Aβ40 and Aβ42 secretion ([2]; 2.0 μM, 24 hours): 50%; reduction of Aβ40 and Aβ42 secretion ([2]; 5.0 μM, 24 hours): greater than 90%; activation of β-catenin/Tcf-dependent reporter Lef-OT (GSK-3 [5]): activation

Q: With CC[C@H](CO)Nc1nc(NCc2ccccc2)c2ncn(C(C)C)c2n1 [roscovitine] as the compound, how does the “effect on Aβ40 and Aβ42” value ([2]; 2.0 μM and 5.0 μM, FIG. 2a) read?
A: Its value is “no effect”.

Q: Which GSK-3α protein level (GSK-3α; siRNA 25 nM, harvested 48 hours after transfection) does the source give for “GSK-3α siRNA: dsRNA of SEQ ID NO:5 (sense) and SEQ ID NO:6 (antisense) directed against GSK-3α (sense UUCUACUCCAGUGGUGAGA; antisense UCUCACCACUGGAGUAGAA; listed as RNA, chemistry not fully specified)” here?
A: Its GSK-3α protein level is “selectively reduces”.

Q: What about the “decrease of secreted Aβ40 level” value ([6]; FIG. 3b) of the same compound?
A: Its value is 45%.

Q: And the “decrease of secreted Aβ42 level” value ([6]; FIG. 3b)?
A: Its value is 43%.

Q: What does the source list for “GSK-3β directed siRNA: dsRNA of SEQ ID NO:3 (sense) and SEQ ID NO:4 (antisense) directed against GSK-3β (sense AUCUUUGGAGCCACUGAUU; antisense AAUCAGUGGCUCCAAAGAU; listed as RNA, chemistry not fully specified)”?
A: GSK-3β protein level (GSK-3β): selectively reduces; levels of secreted Aβ40 and Aβ42 [6]: modest increase

Q: For “control siRNA: siRNA against pGL3-luciferase (Pp-Luc), SEQ ID NO:1 and 2, control transfection (chain 1 CUUACGCUGAGUACUUCGA; chain 2 UCGAAGUACUCAGCGUAAG; listed as RNA, chemistry not fully specified)”, which GSK-3 expression (GSK-3α; control siRNA, both GSK-3 isoforms, FIG. 3a) is on record?
A: Its GSK-3 expression is “no effect”.
